Assay results as given in ChEMBL document CHEMBL5579837, “Dual 5-HT6/SERT ligands for mitigating neuropsychiatric symptoms of dementia exerting neuroprotection against amyloid-β toxicity, memory preservation, and antidepressant-like properties” (Eur J Med Chem, 2024).
Values after ≈ are worked out from the molar mass of the structure shown.

Legend:
[1] = biological target: Voltage-gated inwardly rectifying potassium channel KCNH2 (Homo sapiens, UniProt Q12809); experiment: Inhibition of hERG expressed in CHO cells measured for 30 mins by electrophysiological automated patch clamp assay; type: toxicity, cell-based
Chain of Voltage-gated inwardly rectifying potassium channel KCNH2 (Q12809 whole entry): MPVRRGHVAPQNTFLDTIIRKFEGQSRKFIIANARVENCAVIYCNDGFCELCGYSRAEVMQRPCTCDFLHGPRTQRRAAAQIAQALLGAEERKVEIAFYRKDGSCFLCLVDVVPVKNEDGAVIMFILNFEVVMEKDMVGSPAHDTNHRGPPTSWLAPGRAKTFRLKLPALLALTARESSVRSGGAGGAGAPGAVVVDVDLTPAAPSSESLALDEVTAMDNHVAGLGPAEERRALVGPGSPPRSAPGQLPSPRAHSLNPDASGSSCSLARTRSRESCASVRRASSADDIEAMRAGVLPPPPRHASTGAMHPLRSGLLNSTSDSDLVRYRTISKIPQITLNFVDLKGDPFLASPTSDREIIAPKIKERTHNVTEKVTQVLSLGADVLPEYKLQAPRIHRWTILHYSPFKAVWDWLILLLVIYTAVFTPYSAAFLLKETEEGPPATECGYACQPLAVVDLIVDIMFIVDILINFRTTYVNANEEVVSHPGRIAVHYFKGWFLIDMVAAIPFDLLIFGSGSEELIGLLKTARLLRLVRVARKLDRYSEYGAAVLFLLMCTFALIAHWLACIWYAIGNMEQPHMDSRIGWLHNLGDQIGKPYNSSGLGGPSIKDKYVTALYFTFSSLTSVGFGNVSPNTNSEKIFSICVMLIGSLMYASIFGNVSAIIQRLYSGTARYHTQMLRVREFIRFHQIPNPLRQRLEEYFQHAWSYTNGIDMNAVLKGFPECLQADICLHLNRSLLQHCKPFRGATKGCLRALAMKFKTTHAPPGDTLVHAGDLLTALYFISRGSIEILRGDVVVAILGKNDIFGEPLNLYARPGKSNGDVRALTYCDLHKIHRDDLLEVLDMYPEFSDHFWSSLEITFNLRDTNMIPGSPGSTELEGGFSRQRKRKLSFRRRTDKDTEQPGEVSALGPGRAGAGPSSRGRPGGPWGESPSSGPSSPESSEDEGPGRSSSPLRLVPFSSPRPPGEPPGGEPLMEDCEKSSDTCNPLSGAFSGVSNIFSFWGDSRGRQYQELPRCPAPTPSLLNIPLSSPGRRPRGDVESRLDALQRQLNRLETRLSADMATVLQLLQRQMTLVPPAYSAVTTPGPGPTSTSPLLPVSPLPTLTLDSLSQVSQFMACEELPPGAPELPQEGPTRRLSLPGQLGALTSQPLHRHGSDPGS

[2] = biological target: 5-hydroxytryptamine receptor 6 (Homo sapiens, UniProt P50406)
Chain of 5-hydroxytryptamine receptor 6 (P50406 whole entry): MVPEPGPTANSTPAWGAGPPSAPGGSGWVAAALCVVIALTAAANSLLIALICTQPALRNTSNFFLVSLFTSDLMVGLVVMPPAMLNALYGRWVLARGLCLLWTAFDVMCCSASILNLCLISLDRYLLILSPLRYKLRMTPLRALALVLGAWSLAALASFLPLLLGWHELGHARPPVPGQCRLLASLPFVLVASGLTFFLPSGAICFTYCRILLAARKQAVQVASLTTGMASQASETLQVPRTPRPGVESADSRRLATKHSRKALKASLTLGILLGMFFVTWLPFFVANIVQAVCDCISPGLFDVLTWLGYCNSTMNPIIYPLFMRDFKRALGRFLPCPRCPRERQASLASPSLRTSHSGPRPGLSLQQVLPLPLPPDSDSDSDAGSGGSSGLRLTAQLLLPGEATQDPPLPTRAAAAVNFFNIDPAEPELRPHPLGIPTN
Description: Displacement of [3H]-LSD from human 5-HT6 receptor extracted from CHO-K1 cell membrane assessed as inhibition constant incubated for 60 mins by microbeta2 scintillation counter analysis

physchem = conditions: PBS, pH 7.4
in vitro [3] = conditions: PAMPA
Description: Permeability of compound by PAMPA based LC-MS analysis

in vitro [4] = conditions: rat, liver microsomes
in vitro [5] = conditions: rat, liver microsomes; remark: listed apart in the source
in vitro [6] = conditions: mouse, HT-22 cells
Description: Neurotoxicity in mouse HT-22 cells incubated for 24 hrs by PrestoBlue reagent based assay

in vitro [7] = conditions: human, HepG2 cells
Description: Hepatotoxicity in human HepG2 cells incubated for 24 hrs by PrestoBlue reagent based assay

SMILES | IC50 [1] | also measured
N#Cc1ccc2[nH]cc(CCCCN3CCN(c4cccc5c4[nH]c(=O)n5Cc4ccccc4)CC3)c2c1 | 1100 nM | 
Cc1c(OCc2ccccc2)cccc1N1CCN(CCCc2c[nH]c3ccc(Cl)cc23)CC1 | 13600 nM | 
N#Cc1ccc2[nH]cc(CCN3CCC(c4cccc5c(S(=O)(=O)c6ccccc6)c[nH]c45)CC3)c2c1 | 1100 nM | 
O=c1[nH]c2c(N3CCN(CCCc4c[nH]c5ccc(Cl)cc45)CC3)cccc2n1Cc1ccccc1 | 2500 nM | 
N#Cc1ccc2[nH]cc(CCCN3CCC(c4cccc5c(S(=O)(=O)c6ccccc6)c[nH]c45)CC3)c2c1 | 28100 nM | 
N#Cc1ccc2[nH]cc(CCCCN3CCN(c4cccc5c4ccn5S(=O)(=O)c4ccccc4)CC3)c2c1 | 1600 nM | 
O=S(=O)(c1ccccc1)c1c[nH]c2c(C3CCN(CCCc4c[nH]c5ccc(F)cc45)CC3)cccc12 | 5000 nM | 
Cc1c(OCc2ccccc2)cccc1N1CCN(CCc2c[nH]c3ccc(Cl)cc23)CC1 | 6600 nM | Ki [2]: 142 nM
N#Cc1ccc2[nH]cc(CCN3CCN(c4cccc5c4ccn5S(=O)(=O)c4ccccc4)CC3)c2c1 | 8900 nM | 
Cc1c(OCc2ccccc2)cccc1N1CCN(CCc2c[nH]c3ccc(F)cc23)CC1 | 2800 nM | 
N#Cc1ccc2[nH]cc(CCCCN3CCC(c4cccc5c(S(=O)(=O)c6ccccc6)c[nH]c45)CC3)c2c1 | 4600 nM | 
O=S(=O)(c1ccccc1)c1c[nH]c2c(C3CCN(CCc4c[nH]c5ccc(F)cc45)CC3)cccc12 | 29300 nM | Ki [2]: 25 nM
O=S(=O)(c1ccccc1)c1c[nH]c2c(C3CCN(CCCc4c[nH]c5ccc(Cl)cc45)CC3)cccc12 | 9500 nM | 
O=c1[nH]c2c(N3CCN(CCCc4c[nH]c5ccc(F)cc45)CC3)cccc2n1Cc1ccccc1 | 2500 nM | 
Cc1c(OCc2ccccc2)cccc1N1CCN(CCc2c[nH]c3ccc(C#N)cc23)CC1 | 3600 nM | 
N#Cc1ccc2[nH]cc(CCN3CCN(c4cccc5c4[nH]c(=O)n5Cc4ccccc4)CC3)c2c1 | 1700 nM | 
O=S(=O)(c1ccccc1)n1ccc2c(N3CCN(CCc4c[nH]c5ccc(F)cc45)CC3)cccc21 | 1300 nM | 
O=S(=O)(c1ccccc1)c1c[nH]c2c(C3CCN(CCc4c[nH]c5ccc(Cl)cc45)CC3)cccc12 | 7000 nM | 
Cc1c(OCc2ccccc2)cccc1N1CCN(CCCc2c[nH]c3ccc(F)cc23)CC1 | 3300 nM | 
Cc1c(OCc2ccccc2)cccc1N1CCN(CCCc2c[nH]c3ccc(C#N)cc23)CC1 | 1100 nM | 
O=S(=O)(c1ccccc1)n1ccc2c(N3CCN(CCCc4c[nH]c5ccc(Cl)cc45)CC3)cccc21 | 700 nM | 
O=S(=O)(c1ccccc1)n1ccc2c(N3CCN(CCc4c[nH]c5ccc(Cl)cc45)CC3)cccc21 | 21300 nM | Ki [2]: 19 nM
N#Cc1ccc2[nH]cc(CCCN3CCN(c4cccc5c4[nH]c(=O)n5Cc4ccccc4)CC3)c2c1 | 1200 nM | 
O=c1[nH]c2c(N3CCN(CCc4c[nH]c5ccc(Cl)cc45)CC3)cccc2n1Cc1ccccc1 | 4000 nM | Ki [2]: 8 nM; solubility at 24 h (physchem): 23.4 µM (≈ 11.4 µg/mL); Papp (in vitro [3]): 2.75 ×10⁻⁶ cm/s; half-life (in vitro [4]): > 1 h; microsomal CLint (in vitro [5]): < 116 µL/min/mg; IC50 at 24 h (in vitro [6]): 47000 nM; IC50 at 24 h (in vitro [7]): 23000 nM
Cc1c(OCc2ccccc2)cccc1N1CCN(CCCCc2c[nH]c3ccc(C#N)cc23)CC1 | 4900 nM | 
O=S(=O)(c1ccccc1)n1ccc2c(N3CCN(CCCc4c[nH]c5ccc(F)cc45)CC3)cccc21 | 2900 nM | 
O=c1[nH]c2c(N3CCN(CCc4c[nH]c5ccc(F)cc45)CC3)cccc2n1Cc1ccccc1 | 3900 nM | Ki [2]: 116 nM
N#Cc1ccc2[nH]cc(CCCN3CCN(c4cccc5c4ccn5S(=O)(=O)c4ccccc4)CC3)c2c1 | 1700 nM | 
